Measured values as given in ChEMBL document CHEMBL3994585, “Synthesis of α-santonin derivatives for diminutive effect on T and B-cell proliferation and their structure activity relationships” (Eur J Med Chem, 2017).

What was measured:
T-cell [1] = test: Cytotoxicity against Balb/c mouse T cells assessed as reduction in cell proliferation at 100 uM after 48 hrs by MTT assay; type: cell-based
[2] = target: Tumor necrosis factor (Homo sapiens) (UniProt P01375); test: Inhibition of TNFalpha (unknown origin) at 10 uM relative to control
[3] = target: Tumor necrosis factor (Homo sapiens) (UniProt P01375); test: Inhibition of TNFalpha (unknown origin) at 5 uM relative to control
T-cell [4] = test: Immunosuppressive activity in Balb/c mouse T cells assessed as ConA-induced cell proliferation at 1 uM after 48 hrs by MTT assay relative to control; type: functional
B-cell [5] = test: Immunosuppressive activity in Balb/c mouse B cells assessed as LPS-induced cell proliferation at 100 uM after 48 hrs by MTT assay relative to control; type: functional
[6] = target: Tumor necrosis factor (Homo sapiens) (UniProt P01375); test: Inhibition of TNFalpha (unknown origin) at 1 uM relative to control
B-cell [7] = test: Cytotoxicity against Balb/c mouse B cells assessed as reduction in cell proliferation at 100 uM after 48 hrs by MTT assay; type: cell-based
B-cell [8] = test: Immunosuppressive activity in Balb/c mouse B cells assessed as LPS-induced cell proliferation at 10 uM after 48 hrs by MTT assay relative to control; type: functional
B-cell [9] = test: Cytotoxicity against Balb/c mouse B cells assessed as reduction in cell proliferation at 10 uM after 48 hrs by MTT assay; type: cell-based
B-cell [10] = test: Cytotoxicity against Balb/c mouse B cells assessed as reduction in cell proliferation at 1 uM after 48 hrs by MTT assay; type: cell-based
T-cell [11] = test: Cytotoxicity against Balb/c mouse T cells assessed as reduction in cell proliferation at 1 uM after 48 hrs by MTT assay; type: cell-based
B-cell [12] = test: Immunosuppressive activity in Balb/c mouse B cells assessed as LPS-induced cell proliferation at 1 uM after 48 hrs by MTT assay relative to control; type: functional
T-cell [13] = test: Cytotoxicity against Balb/c mouse T cells assessed as reduction in cell proliferation at 10 uM after 48 hrs by MTT assay; type: cell-based
T-cell [14] = test: Immunosuppressive activity in Balb/c mouse T cells assessed as ConA-induced cell proliferation at 10 uM after 48 hrs by MTT assay relative to control; type: functional
T-cell [15] = test: Immunosuppressive activity in Balb/c mouse T cells assessed as ConA-induced cell proliferation at 100 uM after 48 hrs by MTT assay relative to control; type: functional
T-cell [16] = test: Effect on ConA-induced Balb/c mouse T cell proliferation at 10 uM after 48 hrs by MTT assay relative to control; type: functional
B-cell [17] = test: Immunostimulant activity in Balb/c mouse B cells assessed as LPS-induced cell proliferation at 10 uM after 48 hrs by MTT assay relative to control; type: ADME, cell-based
T-cell [18] = test: Immunostimulant activity in Balb/c mouse T cells assessed as ConA-induced cell proliferation at 1 uM after 48 hrs by MTT assay relative to control; type: ADME, cell-based
T-cell [19] = test: Immunostimulant activity in Balb/c mouse T cells assessed as ConA-induced cell proliferation at 100 uM after 48 hrs by MTT assay relative to control; type: ADME, cell-based
B-cell [20] = test: Immunostimulant activity in Balb/c mouse B cells assessed as LPS-induced cell proliferation at 100 uM after 48 hrs by MTT assay relative to control; type: ADME, cell-based
T-cell [21] = test: Immunostimulant activity in Balb/c mouse T cells assessed as ConA-induced cell proliferation at 10 uM after 48 hrs by MTT assay relative to control; type: ADME, cell-based
B-cell [22] = test: Immunostimulant activity in Balb/c mouse B cells assessed as LPS-induced cell proliferation at 1 uM after 48 hrs by MTT assay relative to control; type: ADME, cell-based
B-cell [23] = test: Effect on LPS-induced Balb/c mouse B cell proliferation at 100 uM after 48 hrs by MTT assay relative to control; type: functional
[24] = target: Tumor necrosis factor (Homo sapiens) (UniProt P01375); test: Inhibition of TNFalpha (unknown origin) at 10 uM relative to dexamethasone

Sequence of Tumor necrosis factor (Homo sapiens) (P01375 whole entry): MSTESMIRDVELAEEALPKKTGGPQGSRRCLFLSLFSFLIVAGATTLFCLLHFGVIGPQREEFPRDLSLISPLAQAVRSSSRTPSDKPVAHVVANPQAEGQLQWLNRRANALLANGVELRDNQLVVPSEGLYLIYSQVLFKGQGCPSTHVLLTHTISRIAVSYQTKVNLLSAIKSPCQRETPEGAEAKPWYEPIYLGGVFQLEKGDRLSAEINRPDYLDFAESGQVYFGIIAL

Row | Structure (SMILES) | Activity (T-cell [1]) | inhibition [2] | inhibition [3] | Activity (T-cell [4]) | Activity (B-cell [5]) | inhibition [6] | Activity (B-cell [7]) | Activity (B-cell [8]) | Activity (B-cell [9]) | Activity (B-cell [10]) | Activity (T-cell [11]) | Activity (B-cell [12]) | Activity (T-cell [13]) | Activity (T-cell [14]) | Activity (T-cell [15]) | Activity (T-cell [18]) | Activity (T-cell [19]) | other results
1 | Cc1cc(O)c(C)c2c1CC[C@@H]([C@@H](C)C(=O)Nc1ccc(CC#N)cc1)C2 | Toxic | 17.1% | 4.5% | -36.02% | -46.7% | Below limit of detection | Toxic | -39.56% | Toxic | Toxic | Toxic | -42.3% | Toxic | -30.14% | -7.35% |  |  | 
2 | CCOC(=O)[C@H](C)C1=Cc2c(C)c(O)cc(C)c2CC1 | Toxic |  |  |  |  |  | Toxic |  | Toxic | Toxic | Toxic | -1.76% | Toxic |  |  | 11.34% | 22.68% | Activity (T-cell [16]): 0%; Activity (B-cell [17]): 23%; Activity (B-cell [20]): 14.15%
3 | CC1=C2[C@H]3OC(=O)[C@@H](C)[C@@H]3CC[C@@]2(C)C=CC1=O [SANTONIN] | Non-Toxic | 19% | 6.2% | -36.02% | -33.62% | Below limit of detection | Non-Toxic | -24.17% | Non-Toxic | Non-Toxic | Non-Toxic |  | Non-Toxic |  | -5.16% |  |  | Activity (T-cell [21]): 4.48%; Activity (B-cell [22]): 20.35%
4 | CC(=O)OC1=C(C)C2=C3OC(=O)C(C)=C3CC[C@@]2(C)CC1 | Toxic | 44.9% | 24.1% | -30.88% | -45.6% | 3.03% | Toxic | -42.3% | Toxic | Toxic | Toxic | -42.3% | Toxic | -38.23% | -34.55% |  |  | 
5 | Cc1c(O)c([N+](=O)[O-])c(C)c2c1[C@@H]1OC(=O)[C@@H](C)[C@@H]1CC2 | Toxic |  |  |  |  |  | Toxic | -30.08% | Toxic | Toxic | Toxic | -10.61% | Toxic | -1.03% |  | 13.4% | 36.08% | Activity (B-cell [23]): 0%
6 | C[C@@H]1C[C@H]2[C@@H]3CCC4=CC(=O)C=C[C@]4(C)[C@@]3(F)[C@@H](O)C[C@]2(C)[C@@]1(O)C(=O)CO |  |  |  |  |  | 49.9% |  |  |  |  |  |  |  |  |  |  |  | 
7 | COC(=O)[C@H](C)C1=Cc2c(C)c(OC)cc(C)c2CC1 | Toxic |  |  |  |  |  | Toxic |  | Toxic | Toxic | Toxic | -1.76% | Toxic |  |  | 11.34% | 22.68% | Activity (T-cell [16]): 0%; Activity (B-cell [17]): 23%; Activity (B-cell [20]): 14.15%
8 | CC(=O)Oc1cc(C)c2c(c1C)C1OC(OC(C)=O)C(C)C1CC2 (stereo not drawn) | Toxic | 26% | 9.9% | -38.23% | -45.05% | 0.34% | Toxic | -28.02% | Toxic | Toxic | Toxic | -50% | Toxic | -26.47% | -43.38% |  |  | inhibition [24]: 50%
